Tested on: cholesterol oxidase
Experiment: Relative absorbance of free cholesterol reaction in serum with cholesterol oxidase and fulfenamic acid (Reagents J to L)
Type: biochemical
Details: 600 nm, 37° C. 5 minutes, pH 6.0/7.0/8.0, 5.0 U/mL cholesterol oxidase and 0 mM fulfenamic acid = 100, average of four serum samples
Method: Reagents J to L shown below in Table 6 were prepared, which commonly contained 1.25 U/mL peroxidase (product of Toyobo Co., Ltd.), 0.01% 4-aminoantipyrine, 0.02% disulfo butyl-m-toluidine and 50 mM NaCl and were different from each other in the kind and pH of buffer and the concentrations of cholesterol oxidase (product of Toyobo Co., Ltd.) and fulfenamic acid (product of Sigma Chemical Co.).
Reagents J to L (300 μL) were separately added to aliquots (3 μL) of each serum sample. After the resultant mixtures were incubated at 37° C. for 5 minutes, their absorbances were measured at600 nm. The above procedures were conducted using the Hitachi 7150 automated analyzer.
With respect to each of Reagents J to L, relative absorbances were calculated for the individual concentrations of cholesterol oxidase and fulfenamic acid by assuming that the absorbance obtained with a reagent containing 5.0 U/mL cholesterol oxidase and 0 mM fulfenamic acid was 100.
Results, which had been obtained by averaging the relative absorbances of the four samples, are presented in FIG. 3. in which “COD” stands for cholesterol oxidase.

Question: Which relative absorbance does the source give for `O=C(O)c1ccccc1Nc1cccc(C(F)(F)F)c1` [fulfenamic acid, flufenamic acid] here?
Answer: Its relative absorbance is “increased depending upon the concentration of fulfenamic acid irrespective of the pH”.
